Entries after “also recorded” stand apart in the source; their conditions may differ.

The target in this assay is cannabinoid receptor CB2 (Homo sapiens, UniProt P34972). In words: [35S]GTP nucleotide exchange (GEF) G protein activation assay on CB2 in cell membrane preparations. Format: biochemical. Also on record: purchased PerkinElmer; Millipore ChemiScreen; Applied Cell Sciences; Signal Screen (Sf9); E. coli BL21 (DE3) and Expi293F membranes were made in house; ES111-M400UA; A318; 6110130; host or cells: CHO, CHO-K1, Sf9, Expi293F, Expi293F GNTI-, E. coli BL21 (DE3). From the text: To better understand the reason for these discrepancies, we assessed the activation of CB2 receptor by the in vitro G protein activation assay that measures the rates of nucleotide exchange on the Gα subunit of G protein (GEF assay) as described previously[33],[34]. The assay reports the rates of formation of the complex of [^35S]-GTPγS, a homolog of GTP, with the Gα subunit of G protein. Typical assay conditions require small (nanogram) quantities of the receptor protein either in cell membranes or reconstituted into lipid bilayers. The readout of the assay is the amount of the non-hydrolysable complex of Gα with [^35S]-GTPγS which, under selected experimental conditions, is proportional to the amount of activated receptor in the assay.
Chain of cannabinoid receptor CB2 (P34972 whole entry): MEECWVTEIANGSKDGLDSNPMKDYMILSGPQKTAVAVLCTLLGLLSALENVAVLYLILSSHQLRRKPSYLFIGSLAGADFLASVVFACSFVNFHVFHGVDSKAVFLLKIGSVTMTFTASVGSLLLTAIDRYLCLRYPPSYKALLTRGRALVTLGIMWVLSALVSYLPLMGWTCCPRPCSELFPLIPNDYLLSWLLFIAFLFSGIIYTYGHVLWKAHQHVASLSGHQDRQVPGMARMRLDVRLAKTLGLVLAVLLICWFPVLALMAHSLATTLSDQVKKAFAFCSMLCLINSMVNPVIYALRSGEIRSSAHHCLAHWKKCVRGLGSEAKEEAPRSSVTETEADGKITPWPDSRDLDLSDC
Figure 3 GEF of CB2 expressed in: (a) E. coli membranes and (b) CHO membranes (Millipore EMD). 2 μg of total protein per assay. Each point represents an average of four independent measurements (n = 4). Ligands were added at a concentration of 2 μM to ensure saturation of the receptor, and G protein was added as described in “Methods”. The dotted line indicates the rates of activation of G protein in the absence of a ligand. The rates of activation with […] are set to 100%, and rates of activation in the presence of SR-144,528 to 0%.
Figure 4 GEF on CB2 expressed in different cell lines. An amount of 2 μg of membrane protein per assay was used. Each data points represents an average of four independent measurements (n = 4) with error rates indicated by the bars. 100% represents full activation in the presence of 2 μM of CP-55,940, and 0%–with 2 μM SR-144,528.
The subunits of G protein were expressed and purified as described previously. The nucleotide exchange assay was performed as previously described.

For `CC(=O)OCCn1c(=NC(=O)C2C(C)(C)C2(C)C)sc2cc(Cl)ccc21` [MRI-2646, 2-(6-Chloro-2-((2,2,3,3-tetramethylcyclopropane-1-carbonyl)imino)benzo[d]thiazol-3(2H)-yl)ethyl acetate], the “Pharmacological category in GEF assay” value is, setting by setting: (CB2 in CHO membranes (EMD Millipore), ligand 2 μM) “partial inverse agonist”; (CB2 in CHO membranes (PerkinElmer)) “neutral antagonist”; (CB2 in CHO-K1 membranes (Applied Cell Sciences)) “partial inverse agonist”; (CB2 in E. coli BL21 (DE3) membranes (untreated), ligand 2 μM) “partial agonist; also recorded: agonistic effects; also recorded: weaker agonist”; (CB2 in Expi293F GNTI- membranes) “partial inverse agonist”; (CB2 in Expi293F membranes) “partial inverse agonist”. Further, the “Pharmacological category in GEF assay” value is recorded as “partial agonist” (CB2 in baculovirus infected insect Sf9 cell membranes); “neutral antagonist” (CHO membranes (PerkinElmer), with and without exogenous G protein); “neutral antagonist” (E. coli membranes treated with 20 mM MβCD/cholesterol); “partial agonist” (Expi293F membranes treated with 20 mM MβCD (cholesterol depleted)); “inverse agonist” (Expi293F membranes, with and without exogenous G protein); “partial agonist” (Sf9 membranes, with and without exogenous G protein). The “Pharmacological category on CB2” value reads like this: (bacterial- and insect-cell membranes) “partial agonist”; (cholesterol-containing membranes) “neutral antagonist or a partial inverse agonist; also recorded: either as an inverse agonist or a neutral antagonist”; (mammalian cell membranes) “inverse agonist or neutral antagonist”; (membranes devoid of cholesterol) “partial agonist”.

Source of the values: PMC7881127, “Cholesterol as a modulator of cannabinoid receptor CB2 signaling” (Scientific Reports, 2021).
